For test [1], the target named is T1, Signal transducer and activator of transcription 3 (Homo sapiens, UniProt P40763). Description: Inhibition of Stat3 binding to DNA in human U266 whole cell lysate by ELISA. In kind it is cell-free, U-266. Background: In an ELISA, binding on a coated surface is turned into a signal by an enzyme label.
Test [2] concerns the target T1, Signal transducer and activator of transcription 3. The test is described as follows: Inhibition of Stat3 binding to DNA in human U266 whole cell lysate at 100 ug/ml by ELISA. In kind it is cell-free. The note with it: U-266.
Test [3] shares this target. Description: Inhibition of Stat3 phosphorylation in human U266 whole cell lysate by Western blotting. In kind it is cell-based. Conditions: U-266. For orientation: Immunoblotting shows a protein as a band on a membrane.
For test [4], the target named is Signal transducer and activator of transcription 3 (Mus musculus) (UniProt P42227). The test is described as follows: Displacement of pTyr705 from flag-tagged mouse Stat3 SH2 domain expressed in HEK293 cells up to 200 uM by fluorescence polarization. On the technique in general: In fluorescence polarisation assays a small probe gives low polarisation when free and higher when bound to something large.

For 7 molecules, IC50, inhibition and Activity results are on record in ChEMBL document CHEMBL1141700, “Discovery of the catechol structural moiety as a Stat3 SH2 domain inhibitor by virtual screening” (Bioorg Med Chem Lett, 2008).

By IC50 is commonly meant the concentration needed to halve the response being measured. A lower IC50 goes with higher potency. One may read the inhibition as the relative decrease from the control value, in per cent. A lower inhibition goes with a response near the control.

Calls of active or inactive are those of the source. The calls are words filed in the database; no cut-off is given here.

T1 sequence (P40763 whole entry): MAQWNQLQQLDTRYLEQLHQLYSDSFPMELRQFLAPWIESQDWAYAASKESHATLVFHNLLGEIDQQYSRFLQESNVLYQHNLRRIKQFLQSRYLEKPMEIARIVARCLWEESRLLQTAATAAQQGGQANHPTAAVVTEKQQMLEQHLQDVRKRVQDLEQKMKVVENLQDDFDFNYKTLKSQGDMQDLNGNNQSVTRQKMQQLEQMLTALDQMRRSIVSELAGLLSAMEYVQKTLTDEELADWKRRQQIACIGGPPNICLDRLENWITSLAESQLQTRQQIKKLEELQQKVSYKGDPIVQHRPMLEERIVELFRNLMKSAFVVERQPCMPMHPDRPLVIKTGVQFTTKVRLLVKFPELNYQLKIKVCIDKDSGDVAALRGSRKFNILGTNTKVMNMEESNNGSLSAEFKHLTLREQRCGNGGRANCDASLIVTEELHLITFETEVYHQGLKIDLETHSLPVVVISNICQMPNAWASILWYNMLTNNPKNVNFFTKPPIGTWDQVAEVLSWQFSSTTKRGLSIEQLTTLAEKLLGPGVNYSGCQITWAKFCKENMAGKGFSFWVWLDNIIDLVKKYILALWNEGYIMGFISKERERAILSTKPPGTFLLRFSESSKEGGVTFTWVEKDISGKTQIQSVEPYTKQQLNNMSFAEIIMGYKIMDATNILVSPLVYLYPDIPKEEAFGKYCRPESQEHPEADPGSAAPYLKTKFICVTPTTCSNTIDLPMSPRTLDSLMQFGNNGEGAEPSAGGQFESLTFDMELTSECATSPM
Chain of Signal transducer and activator of transcription 3 (Mus musculus) (P42227 whole entry, the tested form may be a part): as the sequence (P40763 whole entry) above, with E760D counted along it

In the case of `Cc1oc(C)c2c(=O)cc(-c3ccc(O)c(O)c3)cc(O)c12`, the IC50 in test [1] worked out at 106 µM.
As to `Oc1ccc(CC/N=C/c2cccc(O)c2O)cc1O`, the inhibition in test [2] worked out at 51%.
In test [2], `Oc1cccc(-c2nc3ccccc3s2)c1O` showed an inhibition of 56%.
Turning to `O=C(c1ccc(O)c(O)c1)c1cnc(NCc2ccc(F)cc2)s1`, in test [2], the inhibition amounted to 57%.
On the same count and under the same terms, in the case of `Oc1ccc(CC/N=C/c2c(O)ccc3ccccc23)cc1O` it was 50%.
In turn, `O=C(O)c1ccccc1/N=C\c1ccc(O)c(O)c1` yielded an inhibition in test [2] of 8%.
`O=C(Cc1ccc2c(c1)OCO2)NCCc1ccc(O)c(O)c1` had an inhibition in test [2] of 40%. In test [1], this molecule displayed a half-maximal inhibitory concentration (IC50) of 357 µM. In test [3], the result was Active. The outcome in test [4] was inactive.
